Experimental data taken from publication PMC8261786 (Chemical Science, 2021).

Legend:
SDS-PAGE = format: physicochemical; settings: 25 μM amyloid peptide alone; for size of monomers and oligomers (SDS-PAGE): 1–2 h; for size of large aggregates (SDS-PAGE): 24 h
RIN-5fm cells [1] = experiment: MTT cell viability, RIN-5fm; format: cell-based, rat; settings: 25 μM hIAPP, 24 h, n = 3
RIN-5fm cells [2] = experiment: LDH membrane leakage, RIN-5fm; format: cell-based, rat; settings: 25 μM hIAPP, 24 h, n = 3
S. epidermidis = experiment: Bacterial growth assay, S. epidermidis; format: cell-based, Staphylococcus epidermidis (ATCC 14990); settings: amyloid peptides 25 μM
SH-SY5Y cells [3] = experiment: MTT cell viability, SH-SY5Y; format: cell-based, human; settings: 25 μM amyloid, 24 h, n = 3
SH-SY5Y cells [4] = experiment: LDH membrane leakage, SH-SY5Y; format: cell-based, human; settings: 25 μM amyloid, 24 h, n = 3
[5] = test system: E. coli, P. aeruginosa, S. aureus and S. epidermidis; experiment: Bacterial growth assay, four strains together; format: cell-based; settings: hCT 25 μM, growth profiles

Compound	size of monomers and oligomers (SDS-PAGE) (SDS-PAGE)	size of large aggregates (SDS-PAGE) (SDS-PAGE) [kDa]	cell viability, amyloid alone (RIN-5fm cells [1]) [%]	membrane leakage (LDH activity), amyloid alone (RIN-5fm cells [2]) [%]	susceptibility of S. epidermidis (S. epidermidis)	cell viability, amyloid alone (SH-SY5Y cells [3]) [%]	membrane leakage (LDH activity), amyloid alone (SH-SY5Y cells [4]) [%]	growth inhibition [5]
CC[C@H](C)[C@H](NC(=O)[C@H](C)NC(=O)CNC(=O)[C@H](Cc1ccccc1)NC(=O)[C@H](CC(N)=O)NC(=O)[C@H](CC(N)=O)NC(=O)[C@H](CO)NC(=O)[C@H](CO)NC(=O)[C@H](Cc1c[nH]cn1)NC(=O)[C@@H](NC(=O)[C@H](CC(C)C)NC(=O)[C@H](Cc1ccccc1)NC(=O)[C@H](CC(N)=O)NC(=O)[C@H](C)NC(=O)[C@H](CC(C)C)NC(=O)[C@H](CCCNC(=N)N)NC(=O)[C@H](CCC(N)=O)NC(=O)[C@@H](NC(=O)[C@H](C)NC(=O)[C@@H]1CSSC[C@H](NC(=O)[C@@H](N)CCCCN)C(=O)N[C@@H](CC(N)=O)C(=O)N[C@@H]([C@@H](C)O)C(=O)N[C@@H](C)C(=O)N[C@@H]([C@@H](C)O)C(=O)N1)[C@@H](C)O)C(C)C)C(=O)N[C@@H](CC(C)C)C(=O)N[C@@H](CO)C(=O)N[C@@H](CO)C(=O)N[C@H](C(=O)N[C@@H](CC(N)=O)C(=O)N[C@H](C(=O)NCC(=O)N[C@@H](CO)C(=O)N[C@@H](CC(N)=O)C(=O)N[C@H](C(=O)N[C@@H](Cc1ccc(O)cc1)C(N)=O)[C@@H](C)O)C(C)C)[C@@H](C)O [hIAPP, human islet amyloid polypeptide 1–37]	5–15 kDa	> 25	58	36	not susceptible			
CC[C@H](C)[C@H](NC(=O)[C@H](C)NC(=O)[C@@H](NC(=O)[C@H](CCC(N)=O)NC(=O)[C@@H]1CCCN1C(=O)[C@H](Cc1ccccc1)NC(=O)[C@@H](NC(=O)[C@H](Cc1c[nH]cn1)NC(=O)[C@H](Cc1ccccc1)NC(=O)[C@H](CCCCN)NC(=O)[C@H](CC(N)=O)NC(=O)[C@H](Cc1ccccc1)NC(=O)[C@H](CC(=O)O)NC(=O)[C@H](CCC(N)=O)NC(=O)[C@@H](NC(=O)[C@H](Cc1ccc(O)cc1)NC(=O)[C@@H](NC(=O)CNC(=O)[C@H](CC(C)C)NC(=O)[C@H](CCSC)NC(=O)[C@@H]1CSSC[C@H](N)C(=O)NCC(=O)N[C@@H](CC(N)=O)C(=O)N[C@@H](CC(C)C)C(=O)N[C@@H](CO)C(=O)N[C@@H]([C@@H](C)O)C(=O)N1)[C@@H](C)O)[C@@H](C)O)[C@@H](C)O)[C@@H](C)O)C(=O)NCC(=O)N[C@H](C(=O)NCC(=O)N[C@@H](C)C(=O)N1CCC[C@H]1C(N)=O)C(C)C [hCT, human calcitonin 1–32]	5–15 kDa	> 25			not susceptible	69	26	only inhibited the growth of P. aeruginosa
